Target: Human immunodeficiency virus type 1 protease (Human immunodeficiency virus 1, UniProt Q72874)
Assay: Inhibitory activity against HIV-1 Protease

IC50 [nM] | Compound
49.5 | CC[C@H](C)[C@H](NC(=O)[C@H](C(C)C)[C@@H](O)[C@H](O)[C@H](CC1CCCCC1)NC(=O)C1CCCCC1)C(=O)NCc1ccccn1
80.9 | CC[C@H](C)[C@H](NC(=O)[C@H](C(C)C)[C@@H](O)[C@H](O)[C@H](CC1CCCCC1)NC(=O)c1ccccc1)C(=O)NCc1nc2ccccc2[nH]1
36 | CC(C)[C@@H](C(=O)N[C@H]1Cc2ccccc2[C@H]1O)[C@@H](O)[C@H](O)[C@H](CC1CCCCC1)NC(=O)c1ccccc1
540 | CC(C)[C@@H](C(=O)N[C@H]1Cc2ccccc2[C@H]1O)[C@@H](O)[C@H](O)[C@H](CC1CCCCC1)NC(=O)c1ccccc1OCOc1ccccc1
29 | CC(C)(C)NC(=O)N(CC(O)[C@H](Cc1ccccc1)NC(=O)[C@H](CC(N)=O)NC(=O)OCc1ccccc1)C1CCCCC1 (stereo not given in full)
18 | CC[C@H](C)[C@H](NC(=O)[C@H](C(C)C)C(O)[C@H](O)[C@H](CC1CCCCC1)NC(=O)c1ccccc1OCOc1ccccc1)C(=O)NCc1nc2ccccc2[nH]1 (stereo not given in full)
450 | CC(C)[C@@H](C(=O)N[C@H]1Cc2ccccc2[C@H]1O)[C@@H](O)[C@H](O)[C@H](CC1CCCCC1)NC(=O)c1ccccc1OCSc1ccccc1
2400 | CC(C)[C@@H](C(=O)N[C@H]1Cc2ccccc2[C@H]1O)[C@@H](O)[C@H](O)[C@H](CC1CCCCC1)NC(=O)c1ncccc1OCSc1ccccc1
5 | CC(C)(C)NC(=O)N(CC(O)[C@H](Cc1ccccc1)NC(=O)[C@H](CC(N)=O)NC(=O)c1ccc2ccccc2n1)C1CCCCC1 (stereo not given in full)
11.2 | CC[C@H](C)[C@H](NC(=O)[C@H](C(C)C)[C@@H](O)[C@H](O)[C@H](CC1CCCCC1)NC(=O)c1ccccc1OCSc1ccccc1)C(=O)NCc1nc2ccccc2[nH]1
108 | CC[C@H](C)[C@H](NC(=O)[C@H](C(C)C)[C@@H](O)[C@H](O)[C@H](CC1CCCCC1)NC(=O)c1cccc(C)c1OCOc1ccccc1)C(=O)NCc1nc2ccccc2[nH]1
540 | CC(C)[C@@H](C(=O)N[C@H]1Cc2ccccc2[C@H]1O)[C@@H](O)[C@H](O)[C@H](CC1CCCCC1)NC(=O)c1ncccc1OCOc1ccccc1
315 | CC[C@H](C)[C@H](NC(=O)[C@H](C(C)C)[C@@H](O)[C@H](O)[C@H](CC1CCCCC1)NC(=O)c1ncccc1OCSc1ccccc1)C(=O)NCc1nc2ccccc2[nH]1
540 | CC[C@H](C)[C@H](NC(=O)[C@H](C(C)C)C(O)[C@H](O)[C@H](CC1CCCCC1)NC(=O)c1ncccc1OCOc1ccccc1)C(=O)NCc1nc2ccccc2[nH]1 (stereo not given in full)

The next lines start with the molecule.

Compound | IC50 [nM]
CCCCNC(=O)N(CC(C)C)CC(O)[C@H](Cc1ccccc1)NC(=O)[C@H](CC(N)=O)NC(=O)OCc1ccccc1 (stereo not given in full) | 942
CC(C)CN(CC(O)[C@H](Cc1ccccc1)NC(=O)[C@H](CC(N)=O)NC(=O)c1ccc2ccccc2n1)C(=O)NC(C)(C)C (stereo not given in full) | 6.01
CCCNC(=O)N(CC(C)C)CC(O)[C@H](Cc1ccccc1)NC(=O)[C@H](CC(N)=O)NC(=O)OCc1ccccc1 (stereo not given in full) | 543
CC(C)(C)NC(=O)N(Cc1ccncc1)CC(O)[C@H](Cc1ccccc1)NC(=O)[C@H](CC(N)=O)NC(=O)c1ccc2ccccc2n1 (stereo not given in full) | 19
CC(C)CCN(CC(O)[C@H](Cc1ccccc1)NC(=O)[C@H](CC(N)=O)NC(=O)OCc1ccccc1)C(=O)NC(C)(C)C (stereo not given in full) | 13
C[C@H](c1ccccc1)N(CC(O)[C@H](Cc1ccccc1)NC(=O)[C@H](CC(N)=O)NC(=O)OCc1ccccc1)C(=O)NC(C)(C)C (stereo not given in full) | 6500
CC(C)(C)NC(=O)N(Cc1ccccc1)CC(O)[C@H](Cc1ccccc1)NC(=O)[C@H](CC(N)=O)NC(=O)c1ccc2ccccc2n1 (stereo not given in full) | 3
CC(C)CN(CC(O)[C@H](Cc1ccccc1)NC(=O)[C@H](CC(N)=O)NC(=O)OCc1ccccc1)C(=O)NC(C)(C)C (stereo not given in full) | 35
CC(C)CCN(CC(O)[C@H](Cc1ccccc1)NC(=O)[C@H](CC(N)=O)NC(=O)c1ccc2ccccc2n1)C(=O)NC(C)(C)C (stereo not given in full) | 3
CC(C)CN(CC(O)[C@H](Cc1ccccc1)NC(=O)[C@H](CC(N)=O)NC(=O)OCc1ccccc1)C(=O)NC(C)C (stereo not given in full) | 260
CNC(=O)N(CC(C)C)CC(O)[C@H](Cc1ccccc1)NC(=O)[C@H](CC(N)=O)NC(=O)OCc1ccccc1 (stereo not given in full) | 1500
CCCCNC(=O)N(CC(C)C)CC(O)[C@H](Cc1ccccc1)NC(=O)[C@H](CC(N)=O)NC(=O)c1ccc2ccccc2n1 (stereo not given in full) | 126
CC(C)(C)NC(=O)N(Cc1ccccc1)CC(O)[C@H](Cc1ccccc1)NC(=O)[C@H](CC(N)=O)NC(=O)OCc1ccccc1 (stereo not given in full) | 19
CC(C)(C)NC(=O)N(Cc1ccncc1)CC(O)[C@H](Cc1ccccc1)NC(=O)[C@H](CC(N)=O)NC(=O)OCc1ccccc1 (stereo not given in full) | 105
CC(c1ccccc1)N(CC(O)[C@H](Cc1ccccc1)NC(=O)[C@H](CC(N)=O)NC(=O)OCc1ccccc1)C(=O)NC(C)(C)C (stereo not given in full) | 5090
CCNC(=O)N(CC(C)C)CC(O)[C@H](Cc1ccccc1)NC(=O)[C@H](CC(N)=O)NC(=O)OCc1ccccc1 (stereo not given in full) | 330
